Data taken from patent US20120231470A1, “METHODS AND SYSTEMS ASSOCIATED WITH DETECTION OF FATTY ACID ELONGATION IN A CELL” (priority 2011, published 2012).

What was measured:
[1] = known (Ref 10); cited from earlier work
[2] = system: fatty acid biosynthesis in B392 cells; assay: High-throughput 96-well screen for fatty acid biosynthesis inhibitors; format: cell-based, Vibrio harveyi; conditions: B392, 96-well plate; for Detection as fatty acid biosynthesis inhibitor in the high-throughput screen: FIG. 6; for Fluorescence ratio between non-treated cells and drug treated cells: C6N3 5 mM overnight, final drug concentrations 500, 50 or 5 μM, cerulenin at sub-bacteriostatic concentration
Method: In this example, a high-throughput cell-based antibiotic screen, which would identify fatty acid biosynthesis inhibitors, was implemented. B392 cells in a 96-well plate were treated with various concentrations of commercially available fatty acid biosynthesis inhibitors, including cerulenin (Ref. 8), bischloroanthrabenzoxocinone (Ref. 10), thiolactomycin (Ref. 11), and platensimycin (Ref. 2) as well as a number of arbitrarily chosen drugs (listed in TABLE 3).
In TABLE 3 above, rows of the 96-well plate are indicated by a letter and the columns are indicated by a number. Antibiotics labeled with a *, the wells contain 200× stocks of 10 mM and 1 mM of antibiotic in descending order. For bischloroanthrabenzoxocinone, thiolactomycin, and platensimycin, the wells only contain 200× stocks of 1 mM of antibiotic. For other antibiotics, the wells contain 200× stocks of 100 mM, 10 mM, and 1 mM of antibiotic in descending order.
B392 cells given no drug treatment served as the control. Cells were then fed with C6N3 and allowed to grow overnight. Extracellular C6N3 was washed away with 0.9% NaCl three times, and cellular lipids were click-reacted with 50 μM cyclooctyne-coumarin conjugate for 30 minutes at 37° C. Non-reacted cyclooctyne-coumarin conjugate was washed away with 0.9% NaCl three times, and cells were re-suspended in 0.9% NaCl to be analyzed by plate reader. […]. It should be noted that the same method described here in Example 3 can be used to identify compounds which enhance fatty acid biosynthesis. […].
In particular, B392 cells were grown in 150 mL cultures of synthetic media (Ref. 9) until OD 0.3 was reached. Cells were transferred (1 mL of the culture loaded into each well) to a 2 mL 96-well plate via a multi-pipette robot (this robot was used for most liquid transfers mentioned in this example). To each well, 5 μL of antibiotic from a 200× stock antibiotic plate in DMSO (TABLE 3) was introduced to create final treatment concentrations of 500 μM, 50 μM, and 5 μM. After 30 minutes, 10 μL of 500 mM C6N3 in DMSO was introduced to each well for a final treatment concentration of 5 mM. Cells were grown overnight, then spun down at 2000 g for 10 minutes. Supernatant was removed, and then non-incorporated C6N3 was washed from cells three times by re-suspending the cells in 1 mL of 0.9% NaCl, spinning the cells down at 2000 g for 10 minutes, and removing the supernatant. The cells were re-suspended in 200 μL of 50 μM cyclooctyne-coumarin conjugate in 0.9% NaCl and incubated at 37° C. for 30 minutes. Cells were collected and washed three more times with 1 mL of 0.9% NaCl to remove non-reacted cyclooctyne-coumarin conjugate, and cells re-suspended in 400 μL of 0.9% NaCl were analyzed by plate reader for fluorescence (excitation 380 nm, detection 500 nm) and cell density.

[3] = system: fatty acid elongation in V. harveyi strain CY1723; assay: C6N3 incorporation/elongation assay, cyclooctyne-coumarin labeling, plate reader; format: cell-based, Vibrio harveyi; conditions: C6N3 5 mM + cerulenin 10 μg/mL
Method: (§1) In particular, the cells were grown in 5 mL of synthetic media (Ref 9), and at OD 0.2, cerulenin was introduced to appropriate samples for a final treatment concentration of 10 μg/mL (sub-bacteriostatic). Then, at OD 0.3, C6N3 was introduced to appropriate samples for a final treatment concentration of 5 mM. After allowing the cells to grow in presence of C6N3 for 5 hours, the cells were spun down at 5000 g for 10 minutes, and the supernatant was removed. Non-incorporated C6N3 was washed from cells three times by re-suspending the cell pellet in 10 mL of 0.9% NaCl, spinning the cells down at 5000 g for 10 minutes, and removing the supernatant. […] The cells were re-suspended in 1 mL of 50 μM cyclooctyne-coumarin conjugate in 0.9% NaCl and incubated at 37° C. for 30 minutes. Cells were collected and washed three more times with 10 mL of 0.9% NaCl to remove non-reacted cyclooctyne-coumarin conjugate, and a fraction of the cells re-suspended in 2 mL of 0.9% NaCl were analyzed by plate reader (excitation 380 nm, detection 500 nm) or flow cytometry (excitation 407 nm, detection 450/40 bandpass filter).
In particular, the cells were grown in 5 mL of synthetic media (Ref 9), and at OD 0.2, cerulenin was introduced to appropriate samples for a final treatment concentration of 10 μg/mL (sub-bacteriostatic). […]

[4] = system: fatty acid elongation in V. harveyi B392; assay: C6N3 incorporation/elongation assay, cyclooctyne-coumarin labeling, flow cytometry; format: cell-based, Vibrio harveyi; conditions: C6N3 5 mM + cerulenin 10 μg/mL
Method: (§2) In particular, the cells were grown in 5 mL of synthetic media (Ref 9), and at OD 0.2, cerulenin was introduced to appropriate samples for a final treatment concentration of 10 μg/mL (sub-bacteriostatic). Then, at OD 0.3, C6N3 was introduced to appropriate samples for a final treatment concentration of 5 mM. After allowing the cells to grow in presence of C6N3 for 5 hours, the cells were spun down at 5000 g for 10 minutes, and the supernatant was removed. Non-incorporated C6N3 was washed from cells three times by re-suspending the cell pellet in 10 mL of 0.9% NaCl, spinning the cells down at 5000 g for 10 minutes, and removing the supernatant. The cells were re-suspended in 1 mL of 50 μM cyclooctyne-coumarin conjugate in 0.9% NaCl and incubated at 37° C. for 30 minutes. Cells were collected and washed three more times with 10 mL of 0.9% NaCl to remove non-reacted cyclooctyne-coumarin conjugate, and cells re-suspended in 2 mL of 0.9% NaCl were analyzed by plate reader (excitation 380 nm, detection 500 nm) or flow cytometry (excitation 407 nm, detection 450/40 bandpass filter).
(§3) In addition, the samples were analyzed by flow cytometry (FIG. 4)

[5] = system: fatty acid elongation in V. harveyi CY1723; assay: as above; format: cell-based, Vibrio harveyi; conditions: C6N3 5 mM + cerulenin 10 μg/mL
Method: as §2, §3

[6] = system: fatty acid elongation in Vibrio harveyi strain B392; assay: C6N3 incorporation/elongation assay, cyclooctyne-coumarin labeling, plate reader; format: cell-based
Method: as §1, §2

For `COc1cc(C)c2c(c1)O[C@]1(C)Cc3cc4c(c(O)c3[C@H]2O1)C(=O)c1c(O)c(Cl)c(O)c(Cl)c1C4(C)C` [Bischloroanthrabenzoxocinone], which Cell permeability [1] is on record?
The Cell permeability was “poor cell permeability”.

What about the “Detection as fatty acid biosynthesis inhibitor in the high-throughput screen” value [2] of the same compound?
The value was “not detected”.

Which “Ratio (fluorescence/OD of Entry 1 divided by fluorescence/OD of the sample)” value [3] does the source give for `C/C=C/C/C=C/CCC(=O)[C@H]1O[C@H]1C(N)=O` [cerulenin, Cerulenin] here?
Its value is 11.99.

And the Fluorescence/OD ([3]; 5 hours)?
Its Fluorescence/OD is 44069.

And the Mean fluorescence [4]?
The Mean fluorescence was 2347.

And the “Ratio (mean fluorescence of Entry 1 divided by mean fluorescence of the sample)” value [4]?
Its value is 8.06.

And the Mean fluorescence [5]?
The Mean fluorescence was 1704.

What about the “Ratio (mean fluorescence of Entry 1 divided by mean fluorescence of the sample)” value [5] of the same compound?
Its value is 11.09.

What about the Fluorescence/OD ([6]; B392, C6N3 5 mM + cerulenin 10 μg/mL, 5 hours, plate reader) of the same compound?
The Fluorescence/OD was 45609.

What about the “Ratio (fluorescence/OD of Entry 1 divided by fluorescence/OD of the sample)” value ([6]; B392, C6N3 5 mM + cerulenin 10 μg/mL, plate reader) of the same compound?
The value was 11.58.

And the “Fold decrease in fluorescence of cerulenin-treated culture compared to the same culture untreated” value ([6]; B392, C6N3 5 mM, cerulenin 10 μg/mL, FIG. 3)?
The value was “about seven-fold”.

What about the “Inhibition of fatty acid biosynthesis / azide incorporation in lipids” value ([6]; B392 and CY1723 cells treated with C6N3 and cerulenin, TABLES 1 and 2) of the same compound?
Its value is “inhibited fatty acid biosynthesis efficiently”.

What about the “Fluorescence ratio between non-treated cells and drug treated cells” value [2] of the same compound?
Its value is ~4.5.

And the “Detection as fatty acid biosynthesis inhibitor in the high-throughput screen” value [2]?
The value was “can be detected”.

For `CC12C[C@@]34C=CC(=O)[C@@](C)(CCC(=O)Nc5c(O)ccc(C(=O)O)c5O)C3[C@H](CC1C4)O2` (stereo partly drawn) [platensimycin, Platensimycin], which “Fluorescence ratio between non-treated cells and drug treated cells” value [2] is on record?
The value was ~2.6.

And the “Detection as fatty acid biosynthesis inhibitor in the high-throughput screen” value [2]?
Its value is “can be detected”.

Which “Fluorescence ratio between non-treated cells and drug treated cells” value [2] does the source give for `C=C/C(C)=C/[C@@]1(C)SC(=O)C(C)=C1O` [thiolactomycin, Thiolactomycin] here?
Its value is ~4.0.

What about the “Detection as fatty acid biosynthesis inhibitor in the high-throughput screen” value [2] of the same compound?
The value was “can be detected”.
